Data published in ChEMBL document CHEMBL1140971, “Synthesis of new 4-pyrrol-1-yl benzoic acid hydrazide analogs and some derived oxadiazole, triazole and pyrrole ring systems: a novel class of potential antibacterial and antitubercular agents” (2008).
Values after ≈ are worked out from the molar mass of the structure shown.

Key:
Type in all cases: functional
[1] = test system: Mycobacterium tuberculosis; experiment: Antitubercular activity against Mycobacterium tuberculosis H37Rv after 21 days by broth dilution assay; conditions: 504 h
Staphylococcus aureus = experiment: Antibacterial activity against Staphylococcus aureus ATCC 11632 after 18 hrs by broth microdilution method; conditions: ATCC 11632, 18 h
Enterococcus faecalis = experiment: Antibacterial activity against Streptococcus faecalis ATCC 14506 after 18 hrs by broth microdilution method; conditions: ATCC 14506, 18 h
Bacillus subtilis = experiment: Antibacterial activity against Bacillus subtilis ATCC 60511 after 18 hrs by broth microdilution method; conditions: ATCC 60511, 18 h
Klebsiella pneumoniae = experiment: Antibacterial activity against Klebsiella pneumoniae ATCC 10031 after 18 hrs by broth microdilution method; conditions: ATCC 10031, 18 h
Escherichia coli = experiment: Antibacterial activity against Escherichia coli ATCC 10536 after 18 hrs by broth microdilution method; conditions: ATCC 10536, 18 h
Pseudomonas aeruginosa = experiment: Antibacterial activity against Pseudomonas aeruginosa ATCC 10145 after 18 hrs by broth microdilution method; conditions: ATCC 10145, 18 h

SMILES	MIC [1]	MIC (Staphylococcus aureus)	MIC (Enterococcus faecalis)	MIC (Bacillus subtilis)	MIC (Klebsiella pneumoniae)	MIC (Escherichia coli)	MIC (Pseudomonas aeruginosa)
NNC(=O)c1ccc(-n2cccc2)cc1	125 µg/mL (≈ 621 µM)	250 µg/mL (≈ 1240 µM)	31.2 µg/mL (≈ 155 µM)	8 µg/mL (≈ 39.8 µM)	125 µg/mL (≈ 621 µM)	125 µg/mL (≈ 621 µM)	62.5 µg/mL (≈ 311 µM)
Sc1nnc(-c2ccc(-n3cccc3)cc2)o1	16 µg/mL (≈ 65.8 µM)	250 µg/mL (≈ 1030 µM)	31.2 µg/mL (≈ 128 µM)	8 µg/mL (≈ 32.9 µM)	125 µg/mL (≈ 514 µM)	31.2 µg/mL (≈ 128 µM)	31.2 µg/mL (≈ 128 µM)
CC(=O)NNC(=O)c1ccc(-n2cccc2)cc1	62.5 µg/mL (≈ 257 µM)	500 µg/mL (≈ 2060 µM)	250 µg/mL (≈ 1030 µM)	62.5 µg/mL (≈ 257 µM)	125 µg/mL (≈ 514 µM)	500 µg/mL (≈ 2060 µM)	62.5 µg/mL (≈ 257 µM)
O=C(NN=C(c1ccccc1)c1ccccc1)c1ccc(-n2cccc2)cc1	62.5 µg/mL (≈ 171 µM)	500 µg/mL (≈ 1370 µM)	250 µg/mL (≈ 684 µM)	62.5 µg/mL (≈ 171 µM)	125 µg/mL (≈ 342 µM)	125 µg/mL (≈ 342 µM)	62.5 µg/mL (≈ 171 µM)
O=C(N/N=C/c1ccccc1)c1ccc(-n2cccc2)cc1	125 µg/mL (≈ 432 µM)	250 µg/mL (≈ 864 µM)	250 µg/mL (≈ 864 µM)	125 µg/mL (≈ 432 µM)	125 µg/mL (≈ 432 µM)	125 µg/mL (≈ 432 µM)	125 µg/mL (≈ 432 µM)
C/C(=N\NC(=O)c1ccc(-n2cccc2)cc1)c1ccccc1	62.5 µg/mL (≈ 206 µM)	250 µg/mL (≈ 824 µM)	125 µg/mL (≈ 412 µM)	62.5 µg/mL (≈ 206 µM)	125 µg/mL (≈ 412 µM)	125 µg/mL (≈ 412 µM)	62.5 µg/mL (≈ 206 µM)
O=C(N/N=C/c1ccc(O)cc1)c1ccc(-n2cccc2)cc1	31.2 µg/mL (≈ 102 µM)	125 µg/mL (≈ 409 µM)	125 µg/mL (≈ 409 µM)	62.5 µg/mL (≈ 205 µM)	125 µg/mL (≈ 409 µM)	62.5 µg/mL (≈ 205 µM)	62.5 µg/mL (≈ 205 µM)
O=C(N/N=C/c1cccc([N+](=O)[O-])c1)c1ccc(-n2cccc2)cc1	62.5 µg/mL (≈ 187 µM)	500 µg/mL (≈ 1500 µM)	500 µg/mL (≈ 1500 µM)	250 µg/mL (≈ 748 µM)	500 µg/mL (≈ 1500 µM)	500 µg/mL (≈ 1500 µM)	62.5 µg/mL (≈ 187 µM)
NNC(=O)c1ccncc1 [ISONIAZID]	0.25 µg/mL (≈ 1.82 µM)	–	–	–	–	–	–
CC(C)=NNC(=O)c1ccc(-n2cccc2)cc1	62.5 µg/mL (≈ 259 µM)	250 µg/mL (≈ 1040 µM)	125 µg/mL (≈ 518 µM)	62.5 µg/mL (≈ 259 µM)	250 µg/mL (≈ 1040 µM)	125 µg/mL (≈ 518 µM)	62.5 µg/mL (≈ 259 µM)
Nn1c(-c2ccc(-n3cccc3)cc2)n[nH]c1=S	62.5 µg/mL (≈ 243 µM)	500 µg/mL (≈ 1940 µM)	250 µg/mL (≈ 972 µM)	125 µg/mL (≈ 486 µM)	125 µg/mL (≈ 486 µM)	500 µg/mL (≈ 1940 µM)	125 µg/mL (≈ 486 µM)
CN(C)c1ccc(/C=N/NC(=O)c2ccc(-n3cccc3)cc2)cc1	62.5 µg/mL (≈ 188 µM)	250 µg/mL (≈ 752 µM)	125 µg/mL (≈ 376 µM)	125 µg/mL (≈ 376 µM)	125 µg/mL (≈ 376 µM)	250 µg/mL (≈ 752 µM)	125 µg/mL (≈ 376 µM)
CCn1cc(C(=O)O)c(=O)c2cc(F)c(N3CCNCC3)cc21 [NORFLOXACIN]	–	< 5 µg/mL	< 5 µg/mL	≤ 1 µg/mL	≤ 1 µg/mL	≤ 1 µg/mL	> 5 µg/mL
CC(=O)N1N=C(c2ccc(-n3cccc3)cc2)OC1c1ccccc1 (stereo not drawn)	31.2 µg/mL (≈ 94.3 µM)	250 µg/mL (≈ 754 µM)	125 µg/mL (≈ 377 µM)	62.5 µg/mL (≈ 189 µM)	62.5 µg/mL (≈ 189 µM)	125 µg/mL (≈ 377 µM)	62.5 µg/mL (≈ 189 µM)
O=C(O)c1cn(C2CC2)c2cc(N3CCNCC3)c(F)cc2c1=O [CIPROFLOXACIN]	–	< 5 µg/mL	< 5 µg/mL	≤ 1 µg/mL	≤ 1 µg/mL	≤ 1 µg/mL	> 5 µg/mL
O=C(N/N=C/c1c(Cl)cccc1Cl)c1ccc(-n2cccc2)cc1	31.2 µg/mL (≈ 87.2 µM)	125 µg/mL (≈ 349 µM)	125 µg/mL (≈ 349 µM)	62.5 µg/mL (≈ 174 µM)	125 µg/mL (≈ 349 µM)	62.5 µg/mL (≈ 174 µM)	62.5 µg/mL (≈ 174 µM)
CC(=O)N1N=C(c2ccc(-n3cccc3)cc2)OC1c1c(Cl)cccc1Cl (stereo not drawn)	31.2 µg/mL (≈ 78.1 µM)	62.5 µg/mL (≈ 156 µM)	62.5 µg/mL (≈ 156 µM)	31.2 µg/mL (≈ 78.1 µM)	62.5 µg/mL (≈ 156 µM)	62.5 µg/mL (≈ 156 µM)	31.2 µg/mL (≈ 78.1 µM)
Cc1ccc(C)n1NC(=O)c1ccc(-n2cccc2)cc1	31.2 µg/mL (≈ 112 µM)	250 µg/mL (≈ 895 µM)	125 µg/mL (≈ 447 µM)	62.5 µg/mL (≈ 224 µM)	250 µg/mL (≈ 895 µM)	125 µg/mL (≈ 447 µM)	62.5 µg/mL (≈ 224 µM)
